Experiments:
[1] = target: T1, Serine/threonine-protein kinase Nek3 (Homo sapiens) (UniProt P51956); assay: Inhibition of NEK3 (unknown origin) at 10 uM relative to control
T1 sequence (whole entry): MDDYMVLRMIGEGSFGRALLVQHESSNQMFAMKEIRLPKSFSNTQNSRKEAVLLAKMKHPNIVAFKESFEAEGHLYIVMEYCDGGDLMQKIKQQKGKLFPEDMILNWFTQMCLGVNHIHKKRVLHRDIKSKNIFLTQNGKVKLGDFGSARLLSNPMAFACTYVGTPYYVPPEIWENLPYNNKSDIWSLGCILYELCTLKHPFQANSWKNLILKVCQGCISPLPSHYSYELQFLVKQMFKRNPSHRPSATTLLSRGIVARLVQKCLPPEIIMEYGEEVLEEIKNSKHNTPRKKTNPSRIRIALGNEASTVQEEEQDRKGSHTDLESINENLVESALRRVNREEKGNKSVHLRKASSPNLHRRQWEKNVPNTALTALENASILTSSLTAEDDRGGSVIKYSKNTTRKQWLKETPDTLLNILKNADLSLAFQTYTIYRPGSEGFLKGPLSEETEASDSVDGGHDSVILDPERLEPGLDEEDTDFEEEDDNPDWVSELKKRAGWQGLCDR

[2] = target: Serine/threonine-protein kinase Nek4 (Homo sapiens) (UniProt P51957); assay: Inhibition of NEK4 (unknown origin) at 10 uM relative to control
[3] = target: T2, Serine/threonine-protein kinase Nek2 (Homo sapiens) (UniProt P51955); assay: Inhibition of NEK2 (unknown origin) at 10 uM relative to control
T2 sequence (whole entry): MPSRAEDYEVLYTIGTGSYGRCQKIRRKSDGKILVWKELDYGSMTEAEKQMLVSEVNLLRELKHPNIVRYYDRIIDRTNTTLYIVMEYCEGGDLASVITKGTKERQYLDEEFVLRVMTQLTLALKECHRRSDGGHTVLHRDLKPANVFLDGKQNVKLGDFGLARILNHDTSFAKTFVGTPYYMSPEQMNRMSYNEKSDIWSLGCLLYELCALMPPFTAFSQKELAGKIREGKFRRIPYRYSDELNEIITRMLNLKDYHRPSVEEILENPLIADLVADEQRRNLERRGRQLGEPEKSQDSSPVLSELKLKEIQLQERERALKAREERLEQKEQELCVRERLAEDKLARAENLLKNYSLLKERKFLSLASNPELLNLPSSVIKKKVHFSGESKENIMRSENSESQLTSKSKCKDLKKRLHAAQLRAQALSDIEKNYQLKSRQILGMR

[4] = target: T3, Serine/threonine-protein kinase Nek1 (Homo sapiens) (UniProt Q96PY6); assay: Inhibition of NEK1 (unknown origin) at 10 uM relative to control
T3 sequence (whole entry): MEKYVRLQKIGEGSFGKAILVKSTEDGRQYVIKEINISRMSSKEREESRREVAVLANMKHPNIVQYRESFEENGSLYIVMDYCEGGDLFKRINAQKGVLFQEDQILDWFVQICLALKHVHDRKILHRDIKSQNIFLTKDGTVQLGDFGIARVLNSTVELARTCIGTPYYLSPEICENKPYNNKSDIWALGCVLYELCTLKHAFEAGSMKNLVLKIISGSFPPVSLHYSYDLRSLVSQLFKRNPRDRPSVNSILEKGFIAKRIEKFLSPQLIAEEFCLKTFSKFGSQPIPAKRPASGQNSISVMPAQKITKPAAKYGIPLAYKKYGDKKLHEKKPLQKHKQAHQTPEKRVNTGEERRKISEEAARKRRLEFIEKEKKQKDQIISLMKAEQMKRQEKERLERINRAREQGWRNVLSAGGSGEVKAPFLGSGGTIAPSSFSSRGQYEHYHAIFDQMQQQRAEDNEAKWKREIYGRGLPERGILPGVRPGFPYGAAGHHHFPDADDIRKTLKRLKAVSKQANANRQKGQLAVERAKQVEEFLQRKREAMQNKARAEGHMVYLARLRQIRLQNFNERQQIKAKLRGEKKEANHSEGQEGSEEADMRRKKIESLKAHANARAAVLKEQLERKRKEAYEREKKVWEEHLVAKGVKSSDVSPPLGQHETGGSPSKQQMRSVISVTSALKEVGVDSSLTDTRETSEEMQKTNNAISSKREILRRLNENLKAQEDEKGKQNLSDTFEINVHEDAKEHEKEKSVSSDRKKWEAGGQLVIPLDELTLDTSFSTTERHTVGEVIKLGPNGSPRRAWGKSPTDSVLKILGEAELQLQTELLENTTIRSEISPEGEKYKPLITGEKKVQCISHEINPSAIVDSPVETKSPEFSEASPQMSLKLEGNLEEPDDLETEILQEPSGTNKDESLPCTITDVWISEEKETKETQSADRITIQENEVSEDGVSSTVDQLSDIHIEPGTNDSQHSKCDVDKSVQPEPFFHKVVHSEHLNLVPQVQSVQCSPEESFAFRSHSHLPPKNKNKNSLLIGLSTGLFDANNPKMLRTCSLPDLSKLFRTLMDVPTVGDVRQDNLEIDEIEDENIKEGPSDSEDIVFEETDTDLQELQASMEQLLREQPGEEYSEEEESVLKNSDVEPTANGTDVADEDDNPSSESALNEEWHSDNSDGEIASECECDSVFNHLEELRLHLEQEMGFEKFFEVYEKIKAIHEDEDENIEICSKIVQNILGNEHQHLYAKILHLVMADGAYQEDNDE

[5] = target: Serine/threonine-protein kinase Nek7 (Homo sapiens) (UniProt Q8TDX7); assay: Inhibition of NEK7 (unknown origin) at 10 uM relative to control
Serine/threonine-protein kinase Nek7 (Homo sapiens), sequence (Q8TDX7 whole entry, looked up): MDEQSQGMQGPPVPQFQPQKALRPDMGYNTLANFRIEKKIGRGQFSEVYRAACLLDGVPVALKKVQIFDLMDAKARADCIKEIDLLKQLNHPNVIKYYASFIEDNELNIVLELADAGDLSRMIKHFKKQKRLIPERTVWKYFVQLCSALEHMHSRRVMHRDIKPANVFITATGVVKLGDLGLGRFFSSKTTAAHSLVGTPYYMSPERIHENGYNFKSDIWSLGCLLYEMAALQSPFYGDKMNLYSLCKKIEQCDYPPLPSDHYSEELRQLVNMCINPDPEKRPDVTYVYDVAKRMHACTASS

Serine/threonine-protein kinase Nek4 (Homo sapiens), sequence (P51957 whole entry, looked up): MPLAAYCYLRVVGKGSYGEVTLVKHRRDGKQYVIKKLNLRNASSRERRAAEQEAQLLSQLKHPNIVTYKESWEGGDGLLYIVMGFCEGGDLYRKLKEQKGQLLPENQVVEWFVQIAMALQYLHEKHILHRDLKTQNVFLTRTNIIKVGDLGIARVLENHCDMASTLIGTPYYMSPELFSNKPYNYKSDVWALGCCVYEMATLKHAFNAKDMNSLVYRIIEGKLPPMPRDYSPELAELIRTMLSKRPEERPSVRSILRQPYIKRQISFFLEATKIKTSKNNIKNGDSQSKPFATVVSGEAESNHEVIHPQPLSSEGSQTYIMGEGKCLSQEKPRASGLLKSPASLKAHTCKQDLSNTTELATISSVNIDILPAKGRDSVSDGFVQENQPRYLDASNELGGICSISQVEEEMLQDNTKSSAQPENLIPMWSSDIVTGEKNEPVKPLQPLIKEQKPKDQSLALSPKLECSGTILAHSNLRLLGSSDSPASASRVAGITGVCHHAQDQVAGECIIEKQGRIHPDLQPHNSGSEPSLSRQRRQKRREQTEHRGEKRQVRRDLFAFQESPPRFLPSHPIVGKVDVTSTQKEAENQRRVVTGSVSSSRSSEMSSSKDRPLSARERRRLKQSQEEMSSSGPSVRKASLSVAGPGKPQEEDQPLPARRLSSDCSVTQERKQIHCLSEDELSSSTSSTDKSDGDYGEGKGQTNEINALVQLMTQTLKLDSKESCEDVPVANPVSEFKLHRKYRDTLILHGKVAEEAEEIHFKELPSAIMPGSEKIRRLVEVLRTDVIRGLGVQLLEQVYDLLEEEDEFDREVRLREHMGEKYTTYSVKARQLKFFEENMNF

% control [1] [%] | % control [2] [%] | % control [3] [%] | % control [4] [%] | % control [5] [%] | SMILES
0.8 | 100 | 94 | 57 | 45 | Fc1cc(-c2cc[nH]/c(=N/c3ccc(-n4cnc(N5CCOCC5)n4)cc3)n2)cc(N2CCOCC2)c1
6.8 | 83 | 86 | 77 | 7 | CN(C)C/C=C/C(=O)Nc1cccc(C(=O)Nc2ccc(Nc3nccc(-c4cccnc4)n3)cc2)c1
100 | 100 | 99 | 100 | 100 | CN(C)C/C=C/C(=O)Nc1cccc(C(=O)Nc2ccc(Nc3nccc(/C(C#N)=C4\Nc5ccccc5S4)n3)cc2)c1
99 | 100 | 100 | 100 | 20 | Cc1ccc(NC(=O)c2ccc(NC(=O)/C=C/CN(C)C)cc2)cc1Nc1nccc(-c2cccnc2)n1

The remaining lines, values behind:

SMILES | % control [1] [%] | % control [2] [%] | % control [3] [%] | % control [4] [%] | % control [5] [%]
CN(C)C/C=C/C(=O)Nc1cccc(C(=O)Nc2ccc(Nc3nccc(-c4c(-c5ccccc5)nn5ccccc45)n3)cc2)c1 | 99 | 100 | 93 | 100 | 100
O=C1NC(=O)/C(=C/c2ccc3nccc(-c4ccncc4)c3c2)S1 | 77 | 96 | 64 | 47 | 88
Cc1cc(NC(=O)c2cccc(NC(=O)/C=C/CN(C)C)c2)ccc1Nc1nccc(-c2cccnc2)n1 | 73 | 79 | 100 | 81 | 100
CN(C)C/C=C/C(=O)Nc1ccc(C(=O)Nc2cccc(Nc3nccc(-c4cccnc4)n3)c2)cc1 | 17 | 100 | 1.1 | 63 | 9.8

— ChEMBL document CHEMBL5252509, “In depth analysis of kinase cross screening data to identify chemical starting points for inhibition of the Nek family of kinases” (Medchemcomm, 2018)
